For experiment [1], the system named is HL-60. Description: Induction of human HL60 cell differentiation into myeloid cells at 100 nM after 4 days by NBT reduction assay relative to control. The class given is functional.
In experiment [2] the test system is HL-60. Description: Induction of human HL60 cell differentiation into myeloid cells at 10 nM after 4 days by NBT reduction assay relative to control. The class given is functional.
The target of experiment [3] is T1, Retinoic acid receptor RXR-gamma (Homo sapiens) (UniProt P48443).
T1 sequence (whole entry): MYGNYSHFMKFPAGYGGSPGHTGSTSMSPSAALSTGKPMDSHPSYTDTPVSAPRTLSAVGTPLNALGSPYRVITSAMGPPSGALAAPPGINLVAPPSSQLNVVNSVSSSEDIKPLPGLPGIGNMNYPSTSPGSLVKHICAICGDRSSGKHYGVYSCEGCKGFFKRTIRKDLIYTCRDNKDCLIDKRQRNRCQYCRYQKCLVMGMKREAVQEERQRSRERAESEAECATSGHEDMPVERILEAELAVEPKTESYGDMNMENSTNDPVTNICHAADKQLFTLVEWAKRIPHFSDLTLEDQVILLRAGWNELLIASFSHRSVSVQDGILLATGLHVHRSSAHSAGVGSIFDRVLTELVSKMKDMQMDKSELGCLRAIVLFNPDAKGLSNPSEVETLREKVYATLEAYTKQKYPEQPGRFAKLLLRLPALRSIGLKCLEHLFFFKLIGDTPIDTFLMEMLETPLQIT
Description: Transactivation of full-length RXRgamma (unknown origin) expressed in African green monkey COS1 cells at 1000 nM by luciferase reporter gene assay. The class given is cell-based. The note with it: COS-1. On the technique in general: Reporter assays use an easily measured gene product as a stand-in for the process of interest.

Experiment [4] has as its target T2, Retinoic acid receptor RXR-beta (Homo sapiens) (UniProt P28702).
T2 sequence (whole entry): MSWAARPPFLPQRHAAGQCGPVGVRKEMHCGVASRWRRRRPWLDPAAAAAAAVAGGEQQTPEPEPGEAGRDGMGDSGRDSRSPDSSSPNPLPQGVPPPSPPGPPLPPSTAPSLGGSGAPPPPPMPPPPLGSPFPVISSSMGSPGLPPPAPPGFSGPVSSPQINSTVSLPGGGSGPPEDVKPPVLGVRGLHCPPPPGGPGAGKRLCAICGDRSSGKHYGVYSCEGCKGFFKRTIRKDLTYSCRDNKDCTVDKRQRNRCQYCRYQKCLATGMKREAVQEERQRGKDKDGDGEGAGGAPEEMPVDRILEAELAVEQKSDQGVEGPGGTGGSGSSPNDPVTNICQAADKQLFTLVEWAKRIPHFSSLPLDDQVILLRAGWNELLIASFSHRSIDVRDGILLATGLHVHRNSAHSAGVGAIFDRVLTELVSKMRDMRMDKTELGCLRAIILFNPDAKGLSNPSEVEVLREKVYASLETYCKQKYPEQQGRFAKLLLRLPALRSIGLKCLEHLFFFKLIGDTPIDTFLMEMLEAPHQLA
Description: Transactivation of full-length RXRbeta (unknown origin) expressed in African green monkey COS1 cells at 1000 nM by luciferase reporter gene assay. The class given is cell-based. The settings on record: COS-1.

In experiment [5] the target is T3, Retinoic acid receptor gamma (Homo sapiens) (UniProt P13631).
T3 sequence (whole entry): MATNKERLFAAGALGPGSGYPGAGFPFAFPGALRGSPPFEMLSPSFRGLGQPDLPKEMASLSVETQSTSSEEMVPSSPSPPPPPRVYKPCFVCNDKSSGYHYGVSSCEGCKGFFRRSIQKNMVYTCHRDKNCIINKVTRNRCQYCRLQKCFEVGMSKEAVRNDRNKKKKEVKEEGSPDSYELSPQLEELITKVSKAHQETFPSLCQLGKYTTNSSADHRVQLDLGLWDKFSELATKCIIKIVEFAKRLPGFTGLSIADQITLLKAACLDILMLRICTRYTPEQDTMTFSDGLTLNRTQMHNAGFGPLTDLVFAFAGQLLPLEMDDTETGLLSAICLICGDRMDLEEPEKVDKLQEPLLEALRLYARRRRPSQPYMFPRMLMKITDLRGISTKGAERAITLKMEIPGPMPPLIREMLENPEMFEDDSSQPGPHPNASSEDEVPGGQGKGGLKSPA
Briefly: Transactivation of Gal4-fused RARgamma (unknown origin) expressed in African green monkey COS1 cells at 100 nM by luciferase reporter gene assay relative to DMSO-treated control. The class given is cell-based. The note with it: COS-1.

The target in experiment [6] is T4, Retinoic acid receptor beta (Homo sapiens) (UniProt P10826).
T4 sequence (whole entry): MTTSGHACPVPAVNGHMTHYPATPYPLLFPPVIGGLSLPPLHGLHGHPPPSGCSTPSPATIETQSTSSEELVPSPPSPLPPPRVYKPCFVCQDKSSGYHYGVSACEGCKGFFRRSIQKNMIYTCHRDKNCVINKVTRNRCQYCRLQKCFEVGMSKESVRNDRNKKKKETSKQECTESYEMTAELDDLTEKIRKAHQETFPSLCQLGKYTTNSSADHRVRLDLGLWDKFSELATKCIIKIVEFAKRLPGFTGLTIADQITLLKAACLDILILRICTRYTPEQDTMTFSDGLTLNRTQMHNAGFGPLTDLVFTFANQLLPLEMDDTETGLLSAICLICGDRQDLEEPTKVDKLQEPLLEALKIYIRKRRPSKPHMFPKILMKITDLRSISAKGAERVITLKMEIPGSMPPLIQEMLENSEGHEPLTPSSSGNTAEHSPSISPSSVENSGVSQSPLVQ
Briefly: Transactivation of Gal4-fused RARbeta (unknown origin) expressed in African green monkey COS1 cells at 100 nM by luciferase reporter gene assay relative to DMSO-treated control. The class given is cell-based. The note with it: COS-1.

The test system of experiment [7] is HL-60. Briefly: Induction of human HL60 cell differentiation into myeloid cells at 10^-6 M after 4 days by NBT reduction assay. The class given is functional, cell-based.

Calls of active or inactive are those of the source. The rule behind the calls is not given here.

As to `CC12CCCc3cc(C(=O)Nc4ccc(C(=O)O)cn4)cc(c31)CCC2`, the Activity is listed as 61% in the experiment with HL-60 [1] and 41% in the experiment with HL-60 [2]. The outcome in experiment [3] and in experiment [4] was inactive. In addition, the fold change (FC) in experiment [5] came to 25; in experiment [6], 40.
In the case of `O=C(O)c1ccc(NC(=O)c2cc3c4c(c2)CCCCC4CCCC3)cc1`, the values for the Activity with HL-60 [1] and with HL-60 [2] were 40% and 34%, respectively. The outcome in experiment [3] and in experiment [4] was inactive. The fold change (FC) in experiment [5] turned out to be 10; in experiment [6], 27.
In the case of `O=C(O)c1ccc(NC(=O)c2cc3cc(c2)CCCCCCCCCC3)cc1`, the figures for the Activity in the experiment with HL-60 [1] and in the experiment with HL-60 [2] were 38% and 30%, respectively. The result in experiment [3] and in experiment [4] was inactive. The values for the fold change (FC) in experiment [5] and in experiment [6] were 1 and 13, respectively.
For `O=C(Nc1ccc(C(=O)O)c(Cl)c1)c1cc2c3c(c1)CCCCC3CCCC2`, the Activity stood at 35% in the experiment with HL-60 [1] and 18% in the experiment with HL-60 [2]. Also, the result in experiment [3] and in experiment [4] was inactive. Besides, the results for the fold change (FC) in experiment [5] and in experiment [6] were 2 and 13, respectively.
As to `O=C(O)c1ccc(C(=O)Nc2cc3c4c(c2)CCCC4CCC3)nc1`, the Activity with HL-60 [1] was 5%; with HL-60 [2], 2%. For the same compound, the result in experiment [3] and in experiment [4] was inactive. Further, the figures for the fold change (FC) in experiment [5] and in experiment [6] were 7 and 16, respectively.
In the case of `O=C(Nc1ccc(C(=O)O)c(O)c1)c1cc2c3c(c1)CCCC3CCC2`, the Activity with HL-60 [1] was determined as 42%; with HL-60 [2] it was 24%. The outcome in experiment [3] and in experiment [4] was inactive. In addition, the fold change (FC) in experiment [5] was 2; in experiment [6], 6.
As to `O=C(Nc1ccc(C(=O)O)c(F)c1)c1cc2c3c(c1)CCCCC3CCCC2`, in the experiment on HL-60 [7], the result was Active. Further, the Activity with HL-60 [1] is 44%; with HL-60 [2], 28%. Also, the outcome in experiment [3] and in experiment [4] was inactive. Further, the fold change (FC) worked out at 5 in experiment [5] and 19 in experiment [6].
As for `O=C(O)c1ccc(C(=O)Nc2cc3cc(c2)CCCCCCCCCC3)cc1`, the Activity with HL-60 [1] turned out to be 37%; in the experiment on HL-60 [2], 16%. Also, the outcome in experiment [3] and in experiment [4] was inactive. Besides, the fold change (FC) was found to be 1 in experiment [5] and 8 in experiment [6].
For `O=C(O)c1ccc(C(=O)Nc2cc3c4c(c2)CCCCC4CCCC3)cc1`, the results for the Activity with HL-60 [1] and with HL-60 [2] were 53% and 13%, respectively. Also, the outcome in experiment [3] and in experiment [4] was inactive. Besides, the fold change (FC) in experiment [5] is 1; in experiment [6], 13.
Turning to `O=C(Nc1ccc(C(=O)O)c(O)c1)c1cc2c3c(c1)CCCCC3CCCC2`, the Activity in the experiment with HL-60 [1] was 41%; in the experiment with HL-60 [2], 29%. The result in experiment [3] and in experiment [4] was inactive. In addition, the results for the fold change (FC) in experiment [5] and in experiment [6] were 2 and 11, respectively.
Consider `COc1cc(NC(=O)c2cc3c4c(c2)CCCC4CCC3)ccc1C(=O)O`, for which the Activity with HL-60 [1] is listed as 10%; in the experiment with HL-60 [2], 7%. Also, the result in experiment [3] and in experiment [4] was inactive. Further, the fold change (FC) is 1 in experiment [5] and 2 in experiment [6].
For `CC12CCCc3cc(C(=O)Nc4ccc(C(=O)O)c(O)c4)cc(c31)CCC2`, the results for the Activity in the experiment with HL-60 [1] and in the experiment with HL-60 [2] were 32% and 17%, respectively. In addition, the outcome in experiment [3] and in experiment [4] was inactive. Besides, the figures for the fold change (FC) in experiment [5] and in experiment [6] were 1 and 7, respectively.

The values above are taken from ChEMBL document CHEMBL2396574, “Design, synthesis and evaluation of retinoids with novel bulky hydrophobic partial structures” (Bioorg Med Chem, 2013).
